Several values for one entry are separate records, joined by “and”; a condition that tells them apart may be missing. Identical values can stand only once.
Tests used:
epididymal sperm = conditions: rat, in vivo
Method: In Vivo Procedures: Gestating outbred Sprague-Dawley and inbred Fisher mother rats from timed, pregnant colonies housed at the Washington State University Vivarium, were given intraperitoneal injections of vinclozolin (100 mg/kg/day) and methoxychlor (200 mg/kg/day) from embryonic day 8-15 (E8-E15, sperm positive vaginal smear date=E0) of gestation (F0 generation) as previously described. Gestating mothers administered vehicle, sesame oil or DMSO, served as controls. At least 6 lines (individual F0 injected females) were generated for controls and treated groups for these analyses. Male rats from control and treated groups were collected at P60-P180 for analyses. F1 treated males were bred to F1 treated females to generate the F2 treated generation and F2 treated males were bred to F2 treated females to generate the F3 generation and the F3 were bred in the same manner to generate the F4 generation. Rats for the control groups were bred in the same manner for all the generations. No inbreeding or sibling crosses were generated. The outcross group (VOC) were generated by breeding the F2 treated males with wild-type females (total of 6 litters) and reverse outcross group (RVOC) was generated by breeding F2 treated females with wild-type males (total of 3 litters). Control (n=4) and treated (n=4) male offspring from the F1 generation from Fisher strain rats were collected at P6 for DNA methylation analysis, see below. All procedures have been approved by the Washington State University Animal Care Committee. […]
Sperm Motility and Concentration Analysis: Animals were sacrificed and cauda epididymal sperm motility was determined using cauda epididymal sperm. […] All the motile sperm including rapid progressive, slow progressive and non-progressive were counted according to WHO category. Percent ratio of the motile sperm to the total number of sperm including immotile sperm was calculated. Epididymal sperm count was determined using the same epididymis sample according to a previously described method with some modifications.

male rats = conditions: rat, in vivo
Method: In Vivo Procedures: Gestating outbred Sprague-Dawley and inbred Fisher mother rats from timed, pregnant colonies housed at the Washington State University Vivarium, were given intraperitoneal injections of vinclozolin (100 mg/kg/day) and methoxychlor (200 mg/kg/day) from embryonic day 8-15 (E8-E15, sperm positive vaginal smear date=E0) of gestation (F0 generation) as previously described. Gestating mothers administered vehicle, sesame oil or DMSO, served as controls. At least 6 lines (individual F0 injected females) were generated for controls and treated groups for these analyses. Male rats from control and treated groups were collected at P60-P180 for analyses. F1 treated males were bred to F1 treated females to generate the F2 treated generation and F2 treated males were bred to F2 treated females to generate the F3 generation and the F3 were bred in the same manner to generate the F4 generation. Rats for the control groups were bred in the same manner for all the generations. No inbreeding or sibling crosses were generated. The outcross group (VOC) were generated by breeding the F2 treated males with wild-type females (total of 6 litters) and reverse outcross group (RVOC) was generated by breeding F2 treated females with wild-type males (total of 3 litters). Control (n=4) and treated (n=4) male offspring from the F1 generation from Fisher strain rats were collected at P6 for DNA methylation analysis, see below. All procedures have been approved by the Washington State University Animal Care Committee. The number of animals used for replicates in the experiments (i.e. n value) are as follows for vinclozolin treatment: F1 (control 11, treated 12); F2 (control 19, treated 30); F3 (control 19, treated 26); F4 (control 10, treated 17); VOC (18); and RVOC (6). For methoxychlor treatment animal number was for F1 (control 6, treated 9) and F2 (control 16, treated 22).
Histology: Tissues were fixed in Bouin's (Amresco, Solon Ohio) and embedded in paraffin, and then sections stained with hematoxylin and eosin, according to standard procedures. The n=50 treated vinclozolin, n=42 controls.

sperm DNA = assay: Bisulfite sequencing of sperm DNA; assay type: in vivo, rat
Method: Bisulfite Sequencing: Genomic DNA was isolated from F1 and F4 sperm samples using the DNeasy Tissue Kit (Qiagen, Valencia, Calif.) and digested with Rsa I. Genomic DNA was then treated with sodium bisulfite, following methods previously established. Briefly, 5 μg of digested DNA was denatured in NaOH, then treated with 4.0 M, pH 5.0 sodium metabisulfite for 16 hours at 55° C. Following desalting, DNA was desulfonated with NaOH, neutralized and precipitated with ammonium acetate and ethanol. DNA samples were resuspended in 30 μL, of 1 mM Tris buffer, pH 8.0. Sequence specific primers were generated to amplify the region of interest. PCR products were cloned into pGemT Easy vector (Promega Corporation) and sequenced. Approximately 35 clones from each PCR product were sequenced for analysis of methylation state of the CpG sites. Confirming altered methylation states involved comparisons of the sequence following the bisulfite treatment. The primers for the lysophospholipase PCR bisulfite analysis were 5′GGTATATATAGAGGAAGGTAGGTA GG3′ (SEQ ID NO:1) and 5′TAAAAACCTCCAAAAAACAAACAC T3′ (SEQ ID NO:2).
Bisulfite sequencing: Bisulfite sequencing was used to characterize the DNA methylation patterns and changes. Genomic DNA was isolated from control and vinclozolin F2 and F3 generation epididymal sperm using the DNeasy Tissue Kit. Genomic DNA (10 μg) was digested with RsaI then treated with bisulfite as described above for Example I. After purification, the bisulfite converted DNA was used as a template for PCR. The bisulfite primers for each candidate were designed using MethPrimer (www.urogene.org/methprimer) system (Li and Dahiya, 2002) and are listed in Table 2. The sequence specific primers were generated to amplify the CpG region of interest to characterize the methylation pattern. PCR conditions for amplification were as follows: 30 cycles followed by another 30 cycles with nested primers (30 s at 95° C., 45 s at 50° C., and 50 s at 72° C.) and then 5 min at 72° C. with modified 1× buffer [10×: 166 mM (NH4)2.SO4; 670 mM Tris pH 8.8; 67 mM MgCl2; 100 mM β-mercaptoethanol]. PCR products were cloned into pGEM-T easy vector (Promega) and sequenced using Big-Dye Terminator (Applied BioSystems). Approximately 50 different clones from each PCR product were sequenced to characterize the methylation state of the CpG sites identified. A mixture of a minimum of 3 different F2 or F3 generation control and vinclozolin animals were used to generate approximately 50 clones per candidate analyzed. Statistical differences between methylation states were determined with a Fisher's Exact Test.

[1] = F2/F3 sperm DNA, one of 5 potential CpG sites
[2] = F2/F3 sperm DNA, one of 6 potential CpG sites

C=CC1(C)OC(=O)N(c2cc(Cl)cc(Cl)c2)C1=O (stereo not shown) [vinclozolin]
sperm forward motility reduced (epididymal sperm; male): approximately 20%
sperm numbers reduced (epididymal sperm; male): approximately 20%
sperm number and motility in outcross (VOC) males (epididymal sperm): decrease
animals that developed a dramatic decrease in spermatogenic capacity (male rats; male): approximately 20%
animals with infertility associated with small testis and severely reduced spermatogenesis (male rats; male): 4 animals
transgenerational animals that developed complete infertility (male rats; male): 8%
histology of the testis, control versus treated (male rats): similar
infertility in outcrossed (VOC) males (male rats): increased infertility
infertility in reverse outcross (RVOC) (male rats): no infertility
treated sperm DNA samples with bisulfite altered sequence of the lysophospholipase gene (sperm DNA; CpG island of lysophospholipase gene): approximately 25%
methylation differences, Candidate #7 (Ankrd28/Galntl2) (sperm DNA; F2/F3 sperm DNA): did not have any detectable differences
methylation differences, Candidate #21, 32 (LOC503205/NCAM1) (sperm DNA; F2/F3 sperm DNA): no differences in methylation
methylation differences, Candidate #23 (LOC503150/snRP1c) (sperm DNA; F2/F3 sperm DNA): no differences in methylation
methylation differences, Candidate #25 (Mup4/MUP) (sperm DNA; F2/F3 sperm DNA): no differences in methylation
CpG hypermethylated to, Candidate #29 (Runx1/Awa1p) (sperm DNA; F2/F3 sperm DNA, 1 of 6 potential CpG sites): 48%
CpG hypermethylated to, Candidate #14, 15 (Lrrn6a) (sperm DNA; F2/F3 sperm DNA, 2 of 4 potential CpG): 27%
CpG hypermethylated to, Candidate #26 (Acaca) (sperm DNA; F2/F3 sperm DNA, 2 of 5 potential CpG sites): 50% and 28%
CpG hypermethylated to, Candidate #33 (Six3/Six2) (sperm DNA; F2/F3 sperm DNA, 2 of 6 potential CpG sites): 31% and 57%
CpG hypermethylated to, Candidate #27, 28 (zinc finger protein 212) (sperm DNA; F2/F3 sperm DNA, 2 of 8 potential CpG sites): 45% and 48%
CpG hypermethylated to, Candidate #5, 6, 9 (FLJ22405 protein) (sperm DNA; F2/F3 sperm DNA, 2 of 9 potential CpG): 50% and 35%
CpG hypermethylated to, Candidate #17, 18 (nicastrin/Copa) (sperm DNA; F2/F3 sperm DNA, 2 of 20 potential CpG sites): 55% and 30%
CpG hypermethylated to, Candidate #13 (Nfix) (sperm DNA; F2/F3 sperm DNA, 4 of 17 potential CpG sites): 50-60%
methylation differences, Candidate #4, 19 (Cacna1e) (sperm DNA; F2/F3 sperm DNA, 6 potential CpG): did not have any detectable differences in methylation
CpG hypermethylated to, Candidate #31 (Waspip/LOC499811) (sperm DNA; F2/F3 sperm DNA, one of 4 potential CpG sites): 42%
CpG hypermethylated to, Candidate #8 (liprin-α1/Fadd) (sperm DNA; [1]): 65%
CpG hypermethylated to, Candidate #22 (tgolgin-1) (sperm DNA; [1]): 67%
CpG hypermethylated to, Candidate #12 (similar to importin 7) (sperm DNA; [2]): 51%
CpG hypermethylated to, Candidate #16 (optineurin) (sperm DNA; [2]): 79%
H19 methylation (known imprinted gene, control) (sperm DNA; control vs vinclozolin F2/F3 sperm DNA): No change
candidate DNA sequences confirmed to have specific hypermethylation (sperm DNA; of the 25 candidates, F2/F3 sperm DNA): 15
methylation change, Candidate #34 (RAB12) (sperm DNA; partial region only): no change in methylation
